Assay results published in ChEMBL document CHEMBL1201862, “PubChem BioAssay data set” (2004).
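Protocol summary: plate cells (96-well), add compound at 5 concentrations, incubate 48 h, interpolate endpoints linearly. GI50 is the concentration that inhibits growth by half.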 Active and inactive are the calls of the source. No stated cut-off is given here; in the data, active = GI50 up to about 1.1 µM and inactive = higher.

Tests used:
Experiment in all cases: DTP human tumour cell line panel, 48 h
[1] = tested on: A549
[2] = tested on: SK-MEL-2
[3] = tested on: U-251
[4] = tested on: COLO 205
[5] = tested on: MDA-N
[6] = tested on: SK-MEL-28
[7] = tested on: MCF7
[8] = tested on: IGROV-1
[9] = tested on: SW-620
[10] = tested on: SF-539
[11] = tested on: HOP-92
[12] = tested on: NCI-H522
[13] = tested on: EKVX
[14] = tested on: HOP-62
[15] = tested on: SK-MEL-5
[16] = tested on: UO-31
[17] = tested on: Hs-578T
[18] = tested on: OVCAR-3
[19] = tested on: HCT-15
[20] = tested on: LOX IMVI
[21] = tested on: KM12
[22] = tested on: TK-10
[23] = tested on: NCI-H460
[24] = tested on: Malme-3M
[25] = tested on: ACHN
[26] = tested on: M14
[27] = tested on: T47D
[28] = tested on: SF-295
[29] = tested on: MDA-MB-435
[30] = tested on: UACC-257
[31] = tested on: NCI-H23
[32] = tested on: DU-145
[33] = tested on: HCT-116
[34] = tested on: MOLT-4
[35] = tested on: SNB-75
[36] = tested on: 786-0
[37] = tested on: SF-268
[38] = tested on: UACC-62
[39] = tested on: SNB-19
[40] = tested on: MDA-MB-231
[41] = tested on: OVCAR-8
[42] = tested on: SN12C
[43] = tested on: NCI/ADR-RES
[44] = tested on: BT-549
[45] = tested on: OVCAR-5
[46] = tested on: CAKI-1
[47] = tested on: OVCAR-4
[48] = tested on: CCRF-CEM
[49] = tested on: PC-3
[50] = tested on: A498
[51] = tested on: SK-OV-3
[52] = tested on: HL-60
[53] = tested on: NCI-H226
[54] = tested on: HT-29
[55] = tested on: RPMI-8226
[56] = tested on: K562
[57] = tested on: HCC 2998
[58] = tested on: RXF 393
[59] = tested on: SR

Measured: GI50

CC1(CC2=C(C(=O)NCCO[Si](C)(C)C(C)(C)C)C3(OCCO3)C2=O)OCCO1
inactive: [1] > 100 µM | [2] > 100 µM | [3] > 100 µM | [4] > 100 µM | [5] > 100 µM | [6] > 100 µM | [7] > 100 µM | [8] 92.7 µM | [9] > 100 µM | [10] > 100 µM | [11] > 100 µM | [12] 28.4 µM | [13] > 100 µM | [14] > 100 µM | [15] > 100 µM | [16] > 100 µM | [17] > 100 µM | [18] > 100 µM | [20] 57.5 µM | [21] > 100 µM | [22] > 100 µM | [23] > 100 µM | [24] 20.4 µM | [25] > 100 µM | [26] > 100 µM | [27] 59.8 µM | [28] > 100 µM | [29] > 100 µM | [30] > 100 µM | [31] 63.5 µM | [32] > 100 µM | [33] 68.5 µM | [34] 61.1 µM | [35] 36.5 µM | [36] > 100 µM | [37] > 100 µM | [38] > 100 µM | [39] > 100 µM | [40] > 100 µM | [41] > 100 µM | [42] > 100 µM | [43] > 100 µM | [44] 53.2 µM | [45] > 100 µM | [46] > 100 µM | [47] > 100 µM | [48] 54.2 µM | [49] > 100 µM | [50] > 100 µM | [51] > 100 µM | [52] 29.1 µM | [53] 71.1 µM | [54] > 100 µM
> 100 µM: [19]

C=CCn1c(=O)c(C)cn(COCCO)c1=O
inactive: [1] > 100 µM | [2] > 100 µM | [3] > 100 µM | [4] > 100 µM | [5] > 100 µM | [55] > 100 µM | [6] > 100 µM | [7] > 100 µM | [8] > 100 µM | [9] > 100 µM | [10] > 100 µM | [11] > 100 µM | [12] > 100 µM | [13] > 100 µM | [14] > 100 µM | [15] > 100 µM | [16] > 100 µM | [17] > 100 µM | [18] > 100 µM | [20] > 100 µM | [21] > 100 µM | [22] > 100 µM | [23] > 100 µM | [24] > 100 µM | [25] > 100 µM | [26] > 100 µM | [27] > 100 µM | [29] > 100 µM | [30] > 100 µM | [31] > 100 µM | [32] > 100 µM | [34] > 100 µM | [35] > 100 µM | [37] > 100 µM | [39] > 100 µM | [40] > 100 µM | [56] > 100 µM | [41] > 100 µM | [42] > 100 µM | [43] > 100 µM | [44] > 100 µM | [45] > 100 µM | [57] > 100 µM | [46] > 100 µM | [48] > 100 µM | [49] > 100 µM | [50] > 10 µM | [58] > 100 µM | [53] > 100 µM | [54] > 100 µM

N#CCCNCCN(CCN(C(=O)Nc1ccccc1)c1ccccc1)C(=O)Nc1ccccc1
inactive: [1] 48.1 µM | [2] 38.4 µM | [3] > 100 µM | [4] 20.2 µM | [5] 47 µM | [55] 57 µM | [6] 18.7 µM | [7] 37.8 µM | [8] 50.4 µM | [9] 59.7 µM | [11] 40.6 µM | [12] 24.8 µM | [13] 67.1 µM | [14] 65.9 µM | [15] 19.9 µM | [16] 26.4 µM | [17] 59.2 µM | [20] 37.6 µM | [59] 34.2 µM | [22] 29.5 µM | [23] 37.9 µM | [24] 23.4 µM | [25] 47.2 µM | [26] 21.1 µM | [27] 41.5 µM | [28] 51.8 µM | [30] 15.7 µM | [31] 33.2 µM | [32] 66.8 µM | [33] 21.4 µM | [34] 39.4 µM | [35] 25.8 µM | [36] 37.1 µM | [37] 63.5 µM | [38] 32.2 µM | [39] 83.2 µM | [40] > 100 µM | [56] 67 µM | [41] 59.4 µM | [42] 78.9 µM | [43] 58.3 µM | [44] 38.4 µM | [45] 64.6 µM | [57] 16.1 µM | [48] 78.9 µM | [49] 57.3 µM | [50] 51.2 µM | [58] 31.7 µM | [51] > 100 µM | [52] 35.9 µM | [53] 54.7 µM | [54] 33.2 µM
41.5 µM: [19]
